Legend:
Type in all cases: cell-based, human
HT-29 cells [1] = assay: Apoptosis assay by annexin-V/PI double staining, HT-29; settings: HT-29, 24 h, 25 µM; control 8.62%
Description: (§1) Compounds were added to the cells and further incubated for 24 h. After treatment, monolayer and supernatant cells were harvested, washed with PBS and centrifuged (monolayer at 1200 rpm for 10 min, supernatant at 3500 rpm for 10 min). Then, cells were re-suspended in binding buffer and stained with 2 µL of Annexin-V and […] of PI (ANNEXIN-V—FITC Apoptosis Detection Kit, Immunostep) in the dark for 10 min at room temperature. Cells were analysed by BD Accuri C6 Flow Cytometry (Becton–Dickinson). Etoposide (Calbiochem) was used as a reference drug. Experiments were done in triplicates.

A549 cells [2] = assay: Cell cycle analysis (PI, flow cytometry), A549; settings: A549, 24 h, 10 µM
Description: (§2) Then, compounds were added into the wells and cells were further incubated for 24 h. After incubation, monolayer and supernatant cells were harvested and washed in PBS. Then, cells were centrifuged (monolayer—1200 rpm for 10 min, supernatant 3500 rpm for 10 min) and fixed in cold 70% ethanol. Pellets were kept at 4 °C for at least 2 h. Prior to analysis, cells were centrifuged and re-suspended in RNAsi (type 1-A; Sigma Aldrich)—PBS working solution (200 µg/mL). Samples were incubated at 37 °C for 10 min. At the end, 3 µL of 2 mg/mL propidium iodide (PI) (Sigma Aldrich) solution was added to each sample. Samples were kept in the dark prior to analysis. Analysis was performed on BD Accuri C6 Flow Cytometry (Becton–Dickinson). Etoposide (Calbiochem) was used as a reference drug. Experiments were done in triplicates.

A549 cells [3] = assay: Apoptosis assay by annexin-V/PI double staining, A549; settings: A549, 24 h, 75 µM; control 7.80%
Description: as §1

A549 cells [4] = assay: MTT cytotoxicity assay, A549; settings: Homo sapiens, A549, 24 h, MTT, 24 h incubation; read-out: IC50 µM ± SD against A549
Source text: A549 cell line (lung carcinoma from human) (European Collection of Cell Culture) and HT-29 cell line (colorectal adenocarcinoma from human) (American Type Culture Collection) were chosen to evaluate the cytotoxicity of novel compounds.
(§3) The MTT assay was used to evaluate cell metabolic activity. The test principle is based on the determination of cell viability by measuring the metabolic activity in mitochondria. Enzymatically active mitochondria reduce the water-soluble MTT (3-(4,5-dimethylthiazol-2-yl)-2,5 diphenyltetrazoliumbromide) to blue–violet insoluble formazan. The number of viability cells is proportional to the colour intensity determined by photometric measurements (an analytical wavelength 570 nm) after dissolving the formazan in Dimethylsulfoxide (DMSO) (Serva) and Sorensen’s glycine buffer. MTT (Sigma Aldrich) was dissolved in Phosphate Buffered Saline (PBS) (PAN-Biotech) at a concentration of 0.5 mg/mL. Sorensen’s glycine buffer is made of 0.1 M glycine and 0.1 M NaCl, at pH 10.5. Studied compounds were dissolved in DMSO in order to receive stock solutions.
(§4) For the assay, cells were seeded into 96-well plates at density 10^4 cells per well and cultured for 24 h at 37 °C and 5% CO2. Then medium was removed, and cells were exposed to the 100 µL of the compound solutions over a range of concentrations (final DMSO concentration was below 0.2%) or nothing but culture medium (blank control). Pure DMSO was used as a positive control. After 24 h of incubation with the compound solutions, medium was removed and 50 µL of the MTT solution was added to each well and incubated in the dark for additional 2 h at 37 °C. Then the MTT solution was carefully removed and 100 µL of DMSO was added. Plates were incubated for 10 min at room temperature. Finally, 5 µL of Sorensen Buffer was added to each well. Plate was swayed, and the absorbance was measured by using microplate reader (Synergy H1, BioTek, Winooski, VT, USA) at a wavelength of 570 nm. The cell viability was expressed as a percentage of the control values (blank). The experiments were done in triplicate.

HT-29 cells [5] = assay: Cell cycle analysis (PI, flow cytometry), HT-29; settings: HT-29, 24 h, 10 µM
Description: as §2

EA.hy926 cells = assay: MTT cytotoxicity assay, EA.hy926; settings: Homo sapiens, EA.hy 926, 24 h, MTT, 24 h incubation; read-out: IC50 µM ± SD against EA.hy926
Source text: The EA.hy926 cells (the human umbilical vein, somatic cell hybrid) (American Type Culture Collection) are immortalized human umbilical vein endothelial cells. They have morphological, phenotypic and functional characteristics of human endothelial cells, without the limited lifespan. This cell line has been considered as a good model for anticancer drug screening and was chosen to evaluate the endothelial cytotoxicity of novel compounds.
as §3, §4

Structure (SMILES): COc1cc([C@@H]2c3cc4c(cc3[C@@H](O[C@@H]3O[C@@H]5CO[C@@H](C)O[C@H]5[C@H](O)[C@H]3O)[C@H]3COC(=O)[C@H]23)OCO4)cc(OC)c1O [Etoposide, reference compound]
- Total apoptotic cells (HT-29 cells [1]): 18.18%
- Cells in G0/G1 phase (A549 cells [2]): 27.31%
- Cells in G2/M phase (A549 cells [2]): 66.02%
- Cells in S phase (A549 cells [2]): 6.67%
- Total apoptotic cells (A549 cells [3]): 43.46%
- IC50 (A549 cells [4]): 451 ± 18.3 µM
- Cells in G2/M phase (HT-29 cells [5]): 73.84%
- IC50 (EA.hy926 cells): 155 ± 9.81 µM
